Patent US10654883B2, “Inorganic salts of nicotinic acid mononucleotide as anti-aging agents” (Jumpstart Fertility Pty Ltd, priority 2018, dated 2020)

Key:
[1] = Solution stability in aqueous solution (D2O), degradation measured by 1H-NMR
Method: Three separate 5 mg samples of the same batch of NaMN were completely dissolved without stirring in 0.5 ml of deuterated water (D2O), each in three separate NMR tubes. All three samples were analysed at the time of dissolution via ^1H-NMR for purity.
The first NMR tube was maintained at a temperature of 25° C. The second NMR tube was maintained at a temperature of 40° C. The third NMR tube was maintained at a temperature of 60° C. Degradation of the control NaMN was measured using ^1H-NMR. Degradation of the control NaMN in aqueous solutions was analyzed over a period of 36 weeks (see FIG. 1).
The stability of the salts I-001, I-002, I-003, and I-004 in aqueous solution phase was also tested. Following the same procedure described in the control NaMN, the respective solutions of I-001, I-002, I-003, and I-004 were maintained at 25° C. and analysed for 38 weeks.

COV434 cells = test: NAD cell assay (NAD cycling method) in COV434 cells; type: cell-based, human; conditions: 200 uM, 4 hr; for Fold increase compared to NaMN (NAD level): NAD normalised to protein
Method: NAD levels were assayed based on the NAD cycling method of Zhu and Rand, PLoS One (2012), herein incorporated by reference. COV434 cells were maintained in 6 well plates and treated with the indicated compounds at a concentration of 200 uM for 4 hr. Media was removed, plates were washed in cold PBS and cells were scraped down in NAD extraction buffer containing 10 mM nicotinamide, 50 mM Tris HCl, 0.1% Triton X-100. Cells were homogenised by sonication for 5 seconds, and samples were centrifuged at 7,000 g for 5 min at 4 degrees. Aliquots were taken for later protein assay, and samples were then passed through 10 kDa amicon filters at 14,000 g, 30 min at 4 degrees to remove proteins from the sample. Each sample was measured in technical triplicate, with 25 μL sample added to 100 μL ADH cycling mix (0.2 mg/ml alcohol dehydrogenase enzyme, 2% ethanol, 100 mM Tris pH 8.5). Samples were allowed to cycle for 10 min at room temperature, followed by 50 μL addition of an MTT/PMS solution (0.1 mM phenazine methosulfate, 0.8 mM 3-(4,5-Dimethylthiazol-2-yl)-2,5-diphenyltetrazoliwn bromide), 100 mM Tris-HCl pH 8.5). Plates were then incubated for 15 min and absorbance was measured at 570 nm. NAD concentrations were extrapolated from a standard curve, and normalised to protein concentrations determined by BCA protein assay.

O=C([O-])c1ccc[n+]([C@@H]2O[C@H](COP(=O)([O-])O)[C@@H](O)[C@H]2O)c1.[Na+] [Compound I-001, Sodium 1-((2R,3R,4S,5R)-5-(((hydrogenphosphonato)oxy)methyl)-3,4-dihydroxytetrahydrofuran-2-yl)pyridine-1-ium-3-carboxylate]
degradation in aqueous solution ([1]; 7 weeks, 10 mg/mL): under 2% | degradation in aqueous solution ([1]; 38 weeks, 10 mg/mL): 4.3% | Fold increase compared to NaMN (NAD level) (COV434 cells): 3.0 | Fold Increase compared to NaMN on a molar basis (NAD level) (COV434 cells): 3.23

O=C([O-])c1ccc[n+]([C@@H]2O[C@H](COP(=O)([O-])O)[C@@H](O)[C@H]2O)c1.[K+] [Compound I-002, Potassium 1-((2R,3R,4S,5R)-5-(((hydrogenphosphonato)oxy)methyl)-3,4-dihydroxytetrahydrofuran-2-yl)pyridine-1-ium-3-carboxylate]
degradation in aqueous solution ([1]; 7 weeks, 10 mg/mL): under 2% | degradation in aqueous solution ([1]; 24 weeks, 10 mg/mL): 4.7% | Fold increase compared to NaMN (NAD level) (COV434 cells): 0.8 | Fold Increase compared to NaMN on a molar basis (NAD level) (COV434 cells): 0.84

O=C([O-])c1ccc[n+]([C@@H]2O[C@H](COP(=O)([O-])[O-])[C@@H](O)[C@H]2O)c1.[Na+].[Na+] [Compound I-003, Sodium 1-((2R,3R,4S,5R)-3,4-dihydroxy-5-((phosphonatooxy)methyl)-tetrahydrofuran-2-yl)pyridine-1-ium-3-carboxylate]
degradation in aqueous solution ([1]; 7 weeks, 10 mg/mL): under 2% | Fold increase compared to NaMN (NAD level) (COV434 cells): 1.0 | Fold Increase compared to NaMN on a molar basis (NAD level) (COV434 cells): 1.08

O=C([O-])c1ccc[n+]([C@@H]2O[C@H](COP(=O)([O-])[O-])[C@@H](O)[C@H]2O)c1.[K+].[K+] [Compound I-004, Potassium 1-((2R,3R,4S,5R)-3,4-dihydroxy-5-((phosphonatooxy)methyl)-tetrahydrofuran-2-yl)pyridine-1-ium-3-carboxylate]
degradation in aqueous solution ([1]; 7 weeks, 10 mg/mL): under 2% | degradation in aqueous solution ([1]; 34 weeks, 10 mg/mL): 2.6% | Fold increase compared to NaMN (NAD level) (COV434 cells): 1.3 | Fold Increase compared to NaMN on a molar basis (NAD level) (COV434 cells): 1.57

O=C([O-])c1ccc[n+]([C@@H]2O[C@H](COP(=O)([O-])[O-])[C@@H](O)[C@H]2O)c1.[K+].[Na+] [Compound I-006, Potassium sodium 1-((2R,3R,4S,5R)-3,4-dihydroxy-5-((phosphonatooxy)methyl)tetrahydrofuran-2-yl)pyridine-1-ium-3-carboxylate]
Fold increase compared to NaMN (NAD level) (COV434 cells): 2.3 | Fold Increase compared to NaMN on a molar basis (NAD level) (COV434 cells): 2.72

CC(=O)O[C@@H]1[C@H](OC(C)=O)[C@@H](COP(=O)([O-])O)O[C@H]1[n+]1cccc(C(=O)[O-])c1.[Na+] [Compound I-008, Sodium 1-((2R,3R, 4R, 5R)-3,4-diacetoxy-5-(((hydrogenphosphonato)oxy)methyl)tetrahydrofuran-2-yl)pyridine-1-ium-3-carboxylate]
Fold increase compared to NaMN (NAD level) (COV434 cells): 0.8 | Fold Increase compared to NaMN on a molar basis (NAD level) (COV434 cells): 0.99

CC(=O)O[C@@H]1[C@H](OC(C)=O)[C@@H](COP(=O)([O-])O)O[C@H]1[n+]1cccc(C(=O)[O-])c1.[K+] [Compound I-009, potassium 1-((2R,3R, 4R, 5R)-3,4-diacetoxy-5-(((hydrogenphosphonato)oxy)methyl)tetrahydrofuran-2-yl)pyridine-1-ium-3-carboxylate]
Fold increase compared to NaMN (NAD level) (COV434 cells): 1.0 | Fold Increase compared to NaMN on a molar basis (NAD level) (COV434 cells): 1.39

O=C(O)c1ccc[n+]([C@@H]2O[C@H](COP(=O)(O)O)[C@@H](O)[C@H]2O)c1 [NaMN, nicotinic acid mononucleotide]
degradation in aqueous solution ([1]; 25° C., week 10, D2O, 1H-NMR): about 12.3% | degradation in aqueous solution ([1]; 40° C., week 2, D2O, 1H-NMR, study halted): 15.3% | degradation in aqueous solution ([1]; 60° C., after a week, D2O, 1H-NMR, study halted): 35% | Fold increase compared to NaMN (NAD level) (COV434 cells): 1.0 | Fold Increase compared to NaMN on a molar basis (NAD level) (COV434 cells): 1.0
